# Measured values published in the supplement of paper PMC10307832.
# Columns and labels:
# Test in all cases: relative viability (nuclei count vs DMSO), 5 days (fraction); higher = more cells survive
# [1] = compound: O=C(CCCCCCC(=O)Nc1ccccc1)NO [Vorinostat] + O=C(c1cc(Cc2n[nH]c(=O)c3ccccc23)ccc1F)N1CCN(C(=O)C2CC2)CC1 [Olaparib] (partner 8 µM)
# Procedure, shortened: (§1)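 Nuclei were stained with Hoechst during a one-step fixation (final 0.05% Triton X-100, 1% formaldehyde, 1 ug/ml Hoechst) carried out 5 days after dosing, then counted on 4× images. The cells, lung cancer lines in 1536-well plates, had been dosed by pin tool the day after seeding with one drug alone or a fixed anchor-drug dose plus five library-drug doses (not always all listed) in √10 steps. Relative viability is the nuclei count in treated wells divided by that in vehicle wells, and each value is the median of duplicate plates.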
# [2] = compound: O=C(CCCCCCC(=O)Nc1ccccc1)NO [Vorinostat] + NC(=O)Nc1cc(-c2cccc(F)c2)sc1C(=O)N[C@H]1CCCNC1 [AZD7762] (partner 0.2 µM)
# Procedure, shortened: as §1
# [3] = compound: O=C(CCCCCCC(=O)Nc1ccccc1)NO [Vorinostat] + Cc1cc(Nc2cc(N3CCN(C)CC3)nc(Sc3ccc(NC(=O)C4CC4)cc3)n2)n[nH]1 [Tozasertib] (partner 0.1 µM)
# Procedure, shortened: as §1
# [4] = compound: O=C(CCCCCCC(=O)Nc1ccccc1)NO [Vorinostat] + Nc1nc2[nH]cc(CCc3ccc(C(=O)N[C@@H](CCC(=O)O)C(=O)O)cc3)c2c(=O)[nH]1 [Pemetrexed] (partner 0.2 µM)
# Procedure, shortened: as §1
# [5] = compound: O=C(CCCCCCC(=O)Nc1ccccc1)NO [Vorinostat] + CC1(C)CCC(c2ccc(Cl)cc2)=C(CN2CCN(c3ccc(C(=O)NS(=O)(=O)c4ccc(N[C@H](CCN5CCOCC5)CSc5ccccc5)c(S(=O)(=O)C(F)(F)F)c4)cc3)CC2)C1 [Navitoclax] (partner 0.5 µM)
# Procedure, shortened: as §1
Cell Line,relative viability ([1]; first compound 0.253 µM),relative viability ([1]; first compound 0.8 µM),relative viability ([1]; first compound 2.53 µM),relative viability ([1]; first compound 8 µM),relative viability ([2]; first compound 0.253 µM),relative viability ([2]; first compound 0.8 µM),relative viability ([2]; first compound 2.53 µM),relative viability ([2]; first compound 8 µM),relative viability ([3]; first compound 0.253 µM),relative viability ([3]; first compound 0.8 µM),relative viability ([3]; first compound 2.53 µM),relative viability ([3]; first compound 8 µM),relative viability ([4]; first compound 0.253 µM),relative viability ([4]; first compound 0.8 µM),relative viability ([4]; first compound 2.53 µM),relative viability ([4]; first compound 8 µM),relative viability ([5]; first compound 0.253 µM),relative viability ([5]; first compound 0.8 µM),relative viability ([5]; first compound 2.53 µM),relative viability ([5]; first compound 8 µM)
NCI-H1651,0.187,0.17,0.098,0.0473,0.308,0.45,0.22,0.0691,0.609,0.326,0.153,0.0653,0.614,0.577,0.377,0.0787,1.12,0.732,0.0917,0.0643
NCI-H1666,0.669,0.755,0.512,0.475,0.778,0.826,0.461,0.322,0.499,0.346,0.307,0.259,0.849,0.887,0.651,0.434,0.845,0.652,0.322,0.235
NCI-H1734,0.739,0.66,0.31,0.0928,0.306,0.292,0.162,0.0959,0.258,0.229,0.162,0.133,0.44,0.413,0.408,0.131,0.943,0.76,0.269,0.0823
NCI-H1755,0.953,0.86,0.307,0.205,0.478,0.402,0.276,0.163,0.613,0.51,0.319,0.179,0.458,0.382,0.285,0.177,1.01,0.98,0.369,0.215
NCI-H1793,1.16,0.937,0.358,0.111,0.188,0.492,0.204,0.131,0.316,0.256,0.179,0.125,1.26,0.869,0.654,0.175,0.534,0.521,0.186,0.118
NCI-H1915,0.231,0.175,0.113,0.0841,0.692,0.673,0.377,0.102,0.426,0.267,0.118,0.104,0.531,0.494,0.371,0.102,0.792,0.762,0.479,0.0857
NCI-H1944,0.367,0.33,0.166,0.114,0.328,0.27,0.19,0.104,0.239,0.221,0.132,0.0956,0.585,0.448,0.311,0.135,1.07,0.945,0.731,0.226
NCI-H1975,0.9,0.593,0.249,0.125,0.791,0.641,0.272,0.197,0.762,0.484,0.118,0.077,0.323,0.243,0.183,0.133,1.23,0.839,0.308,0.146
NCI-H1993,0.919,1.02,0.556,0.383,0.817,0.672,0.384,0.312,0.633,0.608,0.489,0.457,0.594,0.492,0.503,0.344,1,0.998,0.608,0.438
NCI-H2085,0.803,0.79,0.442,0.219,0.962,0.898,0.518,0.207,0.771,0.651,0.376,0.311,1.02,0.738,0.45,0.18,1.18,1.02,0.643,0.269
NCI-H2087,0.717,0.52,0.13,0.069,1.35,1.04,0.498,0.102,0.262,0.14,0.0617,0.0825,0.637,0.617,0.347,0.132,1.05,0.959,0.238,0.189
NCI-H2126,0.885,0.905,0.391,0.196,0.999,0.989,0.774,0.208,0.731,0.444,0.212,0.171,0.776,0.666,0.419,0.208,0.834,0.756,0.489,0.211
NCI-H2170,0.632,0.554,0.146,0.0982,1.23,0.923,0.332,0.106,0.729,0.462,0.147,0.155,0.249,0.242,0.222,0.114,0.706,0.481,0.216,0.172
NCI-H2347,0.575,0.633,0.401,0.241,0.595,0.696,0.456,0.226,0.66,0.432,0.244,0.203,0.427,0.41,0.416,0.299,0.933,0.714,0.238,0.16
NCI-H2405,1.02,0.888,0.313,0.0962,0.904,0.742,0.262,0.11,0.718,0.692,0.339,0.117,1.18,1.1,0.357,0.122,1.13,0.771,0.0779,0.0557
NCI-H3122,0.543,0.574,0.319,0.0668,1.17,1.06,0.246,0.0864,0.387,0.294,0.0525,0.0914,0.199,0.199,0.174,0.0738,1.09,1.08,0.959,0.184
PC-3 [JPC-3],1.13,1.05,0.379,0.326,0.834,0.526,0.306,0.271,0.821,0.741,0.229,0.266,1.1,0.866,0.285,0.281,0.655,0.676,0.398,0.247
PC-14,0.351,0.197,0.064,0.0386,0.33,0.288,0.106,0.0453,0.586,0.389,0.0619,0.018,0.162,0.177,0.14,0.0507,1.16,0.985,0.198,0.091
RERF-LC-KJ,0.826,0.715,0.228,0.266,1.06,0.977,0.379,0.211,0.442,0.318,0.262,0.213,0.472,0.39,0.333,0.212,1.25,0.754,0.251,0.291
